Assays:
EGFR L858R = molecular target: T1, EGFR L858R (Homo sapiens, UniProt P00533, L858R); experiment: Biochemical EGFR inhibition assay (Caliper mobility shift), EGFR L858R; conditions: read-out: Enz EGFR_L858R IC50
T1 construct: purchased SignalChem E10-122BG

EGFR (d746-750) = molecular target: T2, EGFR (d746-750) (Homo sapiens, UniProt P00533, DEL746-750); experiment: Biochemical EGFR inhibition assay (Caliper mobility shift), EGFR (d746-750); conditions: read-out: Enz EGFR_Exon19-del746-750 IC50
T2 construct: purchased SignalChem E10-122JG

[1] = molecular target: intracellular phosphorylation of EGFR (Tyr1068) in PC-9 cells (Ex19Del) (Homo sapiens, UniProt P00533, DEL746-750); experiment: PC-9 pEGFR AlphaLISA assay; assay type: cell-based; conditions: 4 hours compound incubation, read-out: Ext pEGFR_PC-9 Ex19Del IC50
Sequence of intracellular phosphorylation of EGFR (Tyr1068) in PC-9 cells (Ex19Del) (P00533 with tags, fused parts or gaps DEL746-750): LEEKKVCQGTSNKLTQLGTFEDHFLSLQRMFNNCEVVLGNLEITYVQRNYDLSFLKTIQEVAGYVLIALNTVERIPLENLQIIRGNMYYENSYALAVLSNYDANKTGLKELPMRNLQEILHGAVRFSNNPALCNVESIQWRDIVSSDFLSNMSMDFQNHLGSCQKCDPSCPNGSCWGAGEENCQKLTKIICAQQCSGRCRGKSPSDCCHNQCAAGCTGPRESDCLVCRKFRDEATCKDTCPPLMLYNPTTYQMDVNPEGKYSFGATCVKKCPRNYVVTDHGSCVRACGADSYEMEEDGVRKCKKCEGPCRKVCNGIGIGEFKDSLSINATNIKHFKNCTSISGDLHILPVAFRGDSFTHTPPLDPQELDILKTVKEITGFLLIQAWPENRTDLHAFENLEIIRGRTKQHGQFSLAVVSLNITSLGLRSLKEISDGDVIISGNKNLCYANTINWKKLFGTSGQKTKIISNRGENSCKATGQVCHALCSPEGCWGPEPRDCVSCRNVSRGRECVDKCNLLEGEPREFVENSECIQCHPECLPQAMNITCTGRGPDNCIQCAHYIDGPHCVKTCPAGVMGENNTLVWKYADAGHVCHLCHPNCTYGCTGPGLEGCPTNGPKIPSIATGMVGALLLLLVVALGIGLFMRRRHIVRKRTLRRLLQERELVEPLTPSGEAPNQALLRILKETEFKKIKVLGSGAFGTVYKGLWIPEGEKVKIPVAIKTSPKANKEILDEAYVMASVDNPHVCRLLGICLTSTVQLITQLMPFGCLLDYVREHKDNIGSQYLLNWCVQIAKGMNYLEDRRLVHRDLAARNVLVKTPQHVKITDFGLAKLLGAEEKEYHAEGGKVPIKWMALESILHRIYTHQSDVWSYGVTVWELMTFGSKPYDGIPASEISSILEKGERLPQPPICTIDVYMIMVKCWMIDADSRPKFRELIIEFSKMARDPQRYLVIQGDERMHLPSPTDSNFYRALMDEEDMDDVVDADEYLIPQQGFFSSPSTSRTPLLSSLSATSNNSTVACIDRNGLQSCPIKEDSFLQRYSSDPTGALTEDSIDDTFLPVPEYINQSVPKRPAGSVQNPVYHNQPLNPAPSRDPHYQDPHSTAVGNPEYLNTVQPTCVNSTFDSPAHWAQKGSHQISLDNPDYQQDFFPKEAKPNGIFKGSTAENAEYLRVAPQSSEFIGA

T2 sequence (P00533 with tags, fused parts or gaps DEL746-750 limits assumed): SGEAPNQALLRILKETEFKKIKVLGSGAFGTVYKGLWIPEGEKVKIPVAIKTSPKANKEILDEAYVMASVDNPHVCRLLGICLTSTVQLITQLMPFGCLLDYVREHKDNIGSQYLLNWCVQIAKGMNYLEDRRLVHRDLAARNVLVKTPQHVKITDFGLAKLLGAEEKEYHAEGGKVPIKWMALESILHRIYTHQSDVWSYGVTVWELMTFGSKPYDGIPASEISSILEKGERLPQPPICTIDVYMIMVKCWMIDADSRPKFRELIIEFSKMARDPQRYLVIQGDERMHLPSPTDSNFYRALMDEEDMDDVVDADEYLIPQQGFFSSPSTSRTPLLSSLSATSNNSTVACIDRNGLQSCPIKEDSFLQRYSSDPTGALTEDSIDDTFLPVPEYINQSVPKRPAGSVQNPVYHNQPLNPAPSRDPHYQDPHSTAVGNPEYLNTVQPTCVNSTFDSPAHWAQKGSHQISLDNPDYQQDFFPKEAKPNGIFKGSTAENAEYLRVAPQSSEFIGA
T1 sequence (P00533 25-1210 L858R): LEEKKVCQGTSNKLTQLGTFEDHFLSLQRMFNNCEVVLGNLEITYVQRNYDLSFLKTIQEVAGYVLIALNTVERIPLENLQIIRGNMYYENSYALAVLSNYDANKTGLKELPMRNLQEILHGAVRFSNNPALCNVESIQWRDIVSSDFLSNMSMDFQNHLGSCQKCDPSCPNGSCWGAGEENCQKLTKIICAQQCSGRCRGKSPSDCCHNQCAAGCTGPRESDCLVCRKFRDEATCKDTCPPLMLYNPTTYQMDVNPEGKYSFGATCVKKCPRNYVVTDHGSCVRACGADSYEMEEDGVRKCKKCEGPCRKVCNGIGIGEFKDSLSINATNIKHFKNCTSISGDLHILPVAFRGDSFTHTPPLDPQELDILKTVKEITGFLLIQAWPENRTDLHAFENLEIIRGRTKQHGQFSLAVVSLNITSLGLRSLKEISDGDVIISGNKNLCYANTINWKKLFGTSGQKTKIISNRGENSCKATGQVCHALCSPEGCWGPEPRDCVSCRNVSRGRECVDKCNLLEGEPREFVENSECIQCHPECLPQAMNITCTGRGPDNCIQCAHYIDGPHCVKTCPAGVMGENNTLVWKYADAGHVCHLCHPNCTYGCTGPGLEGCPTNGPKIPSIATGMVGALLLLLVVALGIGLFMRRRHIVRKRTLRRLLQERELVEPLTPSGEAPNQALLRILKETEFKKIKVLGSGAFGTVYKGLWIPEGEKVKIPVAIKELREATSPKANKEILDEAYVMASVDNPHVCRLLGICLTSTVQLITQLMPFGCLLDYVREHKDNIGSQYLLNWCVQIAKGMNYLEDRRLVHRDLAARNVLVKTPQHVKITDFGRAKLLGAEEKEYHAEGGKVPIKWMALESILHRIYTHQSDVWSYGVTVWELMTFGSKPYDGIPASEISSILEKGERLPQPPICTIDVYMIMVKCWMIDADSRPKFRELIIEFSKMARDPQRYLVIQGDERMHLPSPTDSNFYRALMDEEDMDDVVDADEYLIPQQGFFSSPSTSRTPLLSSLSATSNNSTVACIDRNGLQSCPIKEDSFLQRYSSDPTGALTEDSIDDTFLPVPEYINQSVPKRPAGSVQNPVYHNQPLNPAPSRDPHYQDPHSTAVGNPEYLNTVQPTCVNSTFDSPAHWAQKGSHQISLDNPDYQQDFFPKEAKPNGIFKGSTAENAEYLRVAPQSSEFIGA

IC50 (EGFR L858R) [nM] | IC50 (EGFR (d746-750)) [nM] | IC50 [1] [nM] | Compound
< 10 | < 10 | ≤ 10 | C[C@H](CN(C)C)Oc1cc(-c2cn[nH]c2)cc2ncnc(Nc3ccc4ncccc4c3F)c12 [Example 49, (R)-5-((1-(dimethylamino)propan-2-yl)oxy)-N-(5-fluoroquinolin-6-yl)-7-(1H-pyrazol-4-yl)quinazolin-4-amine]
< 10 | < 10 | ≤ 10 | CN1CCC(Oc2cc(-c3cnn(C)c3)cc3ncnc(Nc4ccc5ncccc5c4F)c23)CC1 [Example 50, N-(5-fluoroquinolin-6-yl)-7-(1-methyl-1H-pyrazol-4-yl)-5-((1-methylpiperidin-4-yl)oxy)quinazolin-4-amine]
< 10 | < 10 | ≤ 10 | C[C@@H](Oc1cc(-c2cnn(CCO)c2)cc2ncnc(Nc3ccc4ncccc4c3F)c12)C1COC1 [Example 51, (R)-2-(4-(4-((5-fluoroquinolin-6-yl)amino)-5-(1-(oxetan-3-yl)ethoxy)quinazolin-7-yl)-1H-pyrazol-1-yl)ethan-1-ol]
< 10 | < 10 | ≤ 10 | COCCn1cc(-c2cc(O[C@H](C)C3COC3)c3c(Nc4ccc5ncccc5c4F)ncnc3c2)cn1 [Example 52, (R)—N-(5-fluoroquinolin-6-yl)-7-(1-(2-methoxyethyl)-1H-pyrazol-4-yl)-5-(1-(oxetan-3-yl)ethoxy)quinazolin-4-amine]
< 10 | < 10 | ≤ 10 | CN1CCC(Oc2cc(-c3cnn(CC(F)F)c3)cc3ncnc(Nc4ccc5ncccc5c4F)c23)CC1 [Example 53, 7-(1-(2,2-difluoroethyl)-1H-pyrazol-4-yl)-N-(5-fluoroquinolin-6-yl)-5-((1-methylpiperidin-4-yl)oxy)quinazolin-4-amine]
< 10 | < 10 | ≤ 10 | COc1nn(C)cc1-c1cc(O[C@H](C)CN(C)C)c2c(Nc3ccc4ncccc4c3F)ncnc2c1 [Example 54, (R)-5-((1-(dimethylamino)propan-2-yl)oxy)-N-(5-fluoroquinolin-6-yl)-7-(3-methoxy-1-methyl-1H-pyrazol-4-yl)quinazolin-4-amine]
< 10 | < 10 | ≤ 10 | C[C@H](CN(C)C)Oc1cc(-c2cnn(CC(F)F)c2)cc2ncnc(Nc3ccc4ncccc4c3F)c12 [Example 55, (R)-7-(1-(2,2-difluoroethyl)-1H-pyrazol-4-yl)-5-((1-(dimethylamino)propan-2-yl)oxy)-N-(5-fluoroquinolin-6-yl)quinazolin-4-amine]
< 10 | < 10 | ≤ 10 | COc1cc(O[C@H](C)C2COC2)c2c(Nc3ccc4ncccc4c3F)ncnc2c1 [Example 56, (R)—N-(5-fluoroquinolin-6-yl)-7-methoxy-5-(1-(oxetan-3-yl)ethoxy)quinazolin-4-amine]
10.1 to 50 | < 10 | 10.1 to 50 | COc1cc(O[C@H](C)CN(C)C)c2c(Nc3ccc4ncccc4c3F)ncnc2c1 [Example 57, (R)-5-((1-(dimethylamino)propan-2-yl)oxy)-N-(5-fluoroquinolin-6-yl)-7-methoxyquinazolin-4-amine]
> 50.1 | 10.1 to 50 | > 50.1 | CCOc1cc2ncnc(Nc3ccc4ncccc4c3F)c2c(O[C@H](C)CN(C)C)n1 [Example 58, (R)-5-((1-(dimethylamino)propan-2-yl)oxy)-7-ethoxy-N-(5-fluoroquinolin-6-yl)pyrido[4,3-d]pyrimidin-4-amine]
< 10 | < 10 | ≤ 10 | C[C@@H](Oc1cc(N2CC3CC(C2)O3)cc2ncnc(Nc3ccc4ncccc4c3F)c12)C1COC1 [Example 59, 7-(6-oxa-3-azabicyclo[3.1.1]heptan-3-yl)-N-(5-fluoroquinolin-6-yl)-5-((R)-1-(oxetan-3-yl)ethoxy)quinazolin-4-amine]
10.1 to 50 | < 10 | 10.1 to 50 | C[C@@H](Oc1cc(N2CCOC(C)(C)C2)cc2ncnc(Nc3ccc4ncccc4c3F)c12)C1COC1 [Example 60, (R)-7-(2,2-dimethylmorpholino)-N-(5-fluoroquinolin-6-yl)-5-(1-(oxetan-3-yl)ethoxy)quinazolin-4-amine]
< 10 | < 10 | ≤ 10 | C[C@@H](Oc1cc(N2CCOCC2)cc2ncnc(Nc3ccc4ncccc4c3F)c12)C1COC1 [Example 61, (R)—N-(5-fluoroquinolin-6-yl)-7-morpholino-5-(1-(oxetan-3-yl)ethoxy)quinazolin-4-amine]
< 10 | < 10 | ≤ 10 | C[C@@H](Oc1cc(N2CC[C@H](C(C)(C)O)C2)cc2ncnc(Nc3ccc4ncccc4c3F)c12)C1COC1 [Example 62, 2—((S)-1-(4-((5-fluoroquinolin-6-yl)amino)-5-((R)-1-(oxetan-3-yl)ethoxy)quinazolin-7-yl)pyrrolidin-3-yl)propan-2-ol]
< 10 | < 10 | ≤ 10 | C[C@@H](Oc1cc(N2CC[C@@H](C(C)(C)O)C2)cc2ncnc(Nc3ccc4ncccc4c3F)c12)C1COC1 [Example 63, 2—((R)-1-(4-((5-fluoroquinolin-6-yl)amino)-5-((R)-1-(oxetan-3-yl)ethoxy)quinazolin-7-yl)pyrrolidin-3-yl)propan-2-ol]
< 10 | < 10 | ≤ 10 | C[C@@H](Oc1cc(N2CC3(COC3)C2)cc2ncnc(Nc3ccc4ncccc4c3F)c12)C1COC1 [Example 64]
10.1 to 50 | < 10 | ≤ 10 | C[C@H](CN(C)C)Oc1cc(N2CCOCC2)cc2ncnc(Nc3ccc4ncccc4c3F)c12 [Example 65, (R)-5-((1-(dimethylamino)propan-2-yl)oxy)-N-(5-fluoroquinolin-6-yl)-7-morpholinoquinazolin-4-amine]
> 50.1 | 10.1 to 50 | > 50.1 | C[C@H](CN(C)C)Oc1cc(N2CC3CCC(C2)O3)cc2ncnc(Nc3ccc4ncccc4c3F)c12 [Example 69, 7-(8-oxa-3-azabicyclo[3.2.1]octan-3-yl)-5-(((R)-1-(dimethylamino)propan-2-yl)oxy)-N-(5-fluoroquinolin-6-yl)quinazolin-4-amine]
10.1 to 50 | < 10 | ≤ 10 | C[C@H](CN(C)C)Oc1cc(N2CC3CC(C2)O3)cc2ncnc(Nc3ccc4ncccc4c3F)c12 [Example 70, 7-(6-oxa-3-azabicyclo[3.1.1]heptan-3-yl)-5-(((R)-1-(dimethylamino)propan-2-yl)oxy)-N-(5-fluoroquinolin-6-yl)quinazolin-4-amine]
< 10 | < 10 | ≤ 10 | C[C@H](CN(C)C)Oc1cc(N2CC3(COC3)C2)cc2ncnc(Nc3ccc4ncccc4c3F)c12 [Example 71, (R)-5-((1-(dimethylamino)propan-2-yl)oxy)-N-(5-fluoroquinolin-6-yl)-7-(2-oxa-6-azaspiro[3.3]heptan-6-yl)quinazolin-4-amine]
10.1 to 50 | < 10 | 10.1 to 50 | C[C@H](CN(C)C)Oc1cc(N2CC[C@@H](C(C)(C)O)C2)cc2ncnc(Nc3ccc4ncccc4c3F)c12 [Example 72, 2—((R)-1-(5-(((R)-1-(dimethylamino)propan-2-yl)oxy)-4-((5-fluoroquinolin-6-yl)amino)quinazolin-7-yl)pyrrolidin-3-yl)propan-2-ol]
< 10 | < 10 | ≤ 10 | C[C@H](CN(C)C)Oc1cc(N2CC[C@H](C(C)(C)O)C2)cc2ncnc(Nc3ccc4ncccc4c3F)c12 [Example 73, 2—((S)-1-(5-(((R)-1-(dimethylamino)propan-2-yl)oxy)-4-((5-fluoroquinolin-6-yl)amino)quinazolin-7-yl)pyrrolidin-3-yl)propan-2-ol]
10.1 to 50 | < 10 | 10.1 to 50 | C[C@H](CN(C)C)Oc1cc(N2CCC3(COC3)C2)cc2ncnc(Nc3ccc4ncccc4c3F)c12 [Example 74, (R)-5-((1-(dimethylamino)propan-2-yl)oxy)-N-(5-fluoroquinolin-6-yl)-7-(2-oxa-6-azaspiro[3.4]octan-6-yl)quinazolin-4-amine]
10.1 to 50 | < 10 | 10.1 to 50 | C[C@H](CN(C)C)Oc1nc(N2CC[C@H](C(C)(C)O)C2)cc2ncnc(Nc3ccc4ncccc4c3F)c12 [Example 75, 2—((S)-1-(5-(((R)-1-(dimethylamino)propan-2-yl)oxy)-4-((5-fluoroquinolin-6-yl)amino)pyrido[4,3-d]pyrimidin-7-yl)pyrrolidin-3-yl)propan-2-ol]
< 10 | < 10 | ≤ 10 | CO[C@@H]1CCN(c2cc3ncnc(Nc4ccc5ncccc5c4F)c3c(O[C@H](C)CN(C)C)n2)C1 [Example 76, 5—(((R)-1-(dimethylamino)propan-2-yl)oxy)-N-(5-fluoroquinolin-6-yl)-7-((R)-3-methoxypyrrolidin-1-yl)pyrido[4,3-d]pyrimidin-4-amine]
< 10 | < 10 | ≤ 10 | C[C@@H](Oc1cc(N2CCC(N(C)C)CC2)cc2ncnc(Nc3ccc4ncccc4c3F)c12)C1COC1 [Example 78, (R)-7-(4-(dimethylamino)piperidin-1-yl)-N-(5-fluoroquinolin-6-yl)-5-(1-(oxetan-3-yl)ethoxy)quinazolin-4-amine]
< 10 | < 10 | ≤ 10 | C[C@@H](Oc1cc(N2CC[C@@H](N(C)C)C2)cc2ncnc(Nc3ccc4ncccc4c3F)c12)C1COC1 [Example 79, 7—((R)-3-(dimethylamino)pyrrolidin-1-yl)-N-(5-fluoroquinolin-6-yl)-5-((R)-1-(oxetan-3-yl)ethoxy)quinazolin-4-amine]

Source: patent publication US12662465B2, “EGFR inhibitors” (Blueprint Medicines Corporation, priority 2021, dated 2026)
